Experimental data: patent US12528819B2 (priority 2016, dated 2026)

Molecular target: T1, α5β2γ2 subtype GABAAR (Homo sapiens, UniProt P18507+P31644)
T1 construct: expressed in transfected cells
T1 sequence (P31644 32-462): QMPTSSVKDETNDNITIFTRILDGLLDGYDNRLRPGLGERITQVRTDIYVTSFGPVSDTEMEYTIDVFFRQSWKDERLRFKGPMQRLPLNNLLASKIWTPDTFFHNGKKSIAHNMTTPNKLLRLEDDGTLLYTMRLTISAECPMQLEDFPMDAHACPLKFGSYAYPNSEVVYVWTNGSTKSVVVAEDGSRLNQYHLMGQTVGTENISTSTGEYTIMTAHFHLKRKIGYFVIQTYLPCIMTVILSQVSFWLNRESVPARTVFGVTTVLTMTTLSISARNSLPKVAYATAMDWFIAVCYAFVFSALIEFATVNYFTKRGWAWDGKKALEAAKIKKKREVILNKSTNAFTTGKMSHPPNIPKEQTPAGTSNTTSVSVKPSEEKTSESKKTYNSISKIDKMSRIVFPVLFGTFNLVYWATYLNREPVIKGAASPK
T1 sequence (P47870 25-512 partner limits assumed): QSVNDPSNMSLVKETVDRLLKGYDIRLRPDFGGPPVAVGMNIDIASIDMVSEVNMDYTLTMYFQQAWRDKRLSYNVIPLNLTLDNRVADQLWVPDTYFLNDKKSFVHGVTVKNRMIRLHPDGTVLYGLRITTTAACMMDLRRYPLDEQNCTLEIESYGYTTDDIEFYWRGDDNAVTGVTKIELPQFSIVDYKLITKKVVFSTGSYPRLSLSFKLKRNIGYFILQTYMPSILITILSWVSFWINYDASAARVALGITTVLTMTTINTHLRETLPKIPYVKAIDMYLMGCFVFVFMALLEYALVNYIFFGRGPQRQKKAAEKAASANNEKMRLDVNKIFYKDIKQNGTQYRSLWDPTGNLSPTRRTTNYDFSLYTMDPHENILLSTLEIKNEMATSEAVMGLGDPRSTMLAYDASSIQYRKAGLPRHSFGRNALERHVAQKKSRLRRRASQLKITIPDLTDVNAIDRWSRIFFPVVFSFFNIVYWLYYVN
T1 sequence (P18507 40-467 limits assumed): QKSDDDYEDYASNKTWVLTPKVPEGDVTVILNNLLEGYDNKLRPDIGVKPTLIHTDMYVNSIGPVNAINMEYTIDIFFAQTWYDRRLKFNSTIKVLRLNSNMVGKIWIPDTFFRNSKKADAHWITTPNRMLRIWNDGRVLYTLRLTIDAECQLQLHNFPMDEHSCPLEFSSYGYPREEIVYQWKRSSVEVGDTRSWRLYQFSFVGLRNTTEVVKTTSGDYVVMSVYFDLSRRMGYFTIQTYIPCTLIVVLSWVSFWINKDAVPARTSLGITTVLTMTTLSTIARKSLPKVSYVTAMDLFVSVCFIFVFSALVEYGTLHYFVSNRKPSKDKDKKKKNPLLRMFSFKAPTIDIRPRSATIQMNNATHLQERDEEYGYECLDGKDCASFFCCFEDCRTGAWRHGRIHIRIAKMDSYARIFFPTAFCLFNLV
Assay: Positive allosteric modulator activity: potentiation of EC20 GABA current in oocytes
Format: cell-based
Conditions: read-out: GABA α5 Functional Data (potentiation), @ 100 nM, reported as ranges
Protocol: (B) Positive Allosteric Modulator Activity of Test Compounds on α5β2γ2 Subtype GABAAR
On day 1, 1 ng/32 nL of GABAA α5β2γ2 cDNA was injected into one oocyte. Test starts on day 2. The cDNA injected to the oocytes was a mix of alpha, beta and gamma, their ratio is 1:1:10 (by weight) and the total weight of the mixed 3 subunits to be injected in one oocyte was 1 ng in 32 nl volume. The injected oocytes can also be tested on day 3. In such case, the cDNA amount injected to the oocytes should be reduced by 20%.
Compounds of the present invention were tested using the following procedures.
• 1). 8 oocytes were placed in 8 chambers of OpusXpress and superfused with Modified Barth's Saline (MBS) at 3 mL/min. Glass electrodes back-filled with 3M KCl (0.5-3 megaohms) were used.
Control test (Diazepam or methyl 3,5-diphenylpyridazine-4-carboxylate) • 1). New oocytes was used to run new test. • 2). […] Oocytes were washed with MBS for 5-10 min. • 4). […] Itest was divided by IGABA to obtain potentiation (%). Test Compounds at Multiple Doses • 1). Repeat the above steps 1), 2) and 3) in the control test. • 2). […] Divide Itest by IGABA to obtain potentiation (%). • 3). Discard all tested oocytes, new oocytes were used and the above steps 1) and 2) were repeated to test second concentration of the same compound. Each oocyte was used for only one concentration test for a single test compound. The steps were repeated for other test compounds.

Cc1nnn2c1Cc1c(-c3noc(C(C)(C)C)n3)ncn1-c1ccc(F)cc1-2 [Compound 160]
activation at 0.1 µM: > 50%

N#Cc1ncn2c1Cc1c(COc3ccccc3)nnn1-c1cc(Cl)ccc1-2 [Compound 226]
activation at 0.1 µM: 20 to 50%

COc1ccc2c(c1)-c1nnc(COCc3cccc(F)c3)n1Cc1c(-c3noc(C(C)C)n3)ncn1-2 [Compound 183]
activation at 0.1 µM: 20 to 50%

C#Cc1ncn2c1Cn1c(COCc3ccccc3)nnc1-c1cc(Cl)ccc1-2 [Compound 351]
activation at 0.1 µM: 20 to 50%

COCc1nnc2n1Cc1c(C3=N[C@@H](c4cc(F)ccc4F)CO3)ncn1-c1ccc(Cl)cc1-2 [Compound 335]
activation at 0.1 µM: 5 to 20%

COCc1nnc2n1Cc1c(C#CCc3cccc(OC(F)(F)F)c3)ncn1-c1ccc(Cl)cc1-2 [Compound 423]
activation at 0.1 µM: 5 to 20%

COc1ccc2c(c1)-n1nncc1Cc1c(C#Cc3ccc(C(F)(F)F)cc3)ncn1-2 [Compound 406]
activation at 0.1 µM: 20 to 50%

COc1ccc2c(c1)-n1nnc(COc3ccccc3F)c1Cc1c(C#N)ncn1-2 [Compound 223]
activation at 0.1 µM: 5 to 20%

Cc1nnn2c1Cc1c(C(=O)OCC(F)(F)F)ncn1-c1ccc(F)cc1-2 [Compound 114]
activation at 0.1 µM: > 50%

CCOCc1nnc2n1Cc1c(-c3ncco3)ncn1-c1ccc(Cl)cc1-2 [Compound 341]
activation at 0.1 µM: 5 to 20%

Cc1nnn2c1Cc1c(-c3noc(C(C)C)n3)ncn1-c1ccccc1-2 [Compound 133]
activation at 0.1 µM: 5 to 20%

COCc1nnc2n1Cc1c(C3=NCCO3)ncn1-c1ccc(Cl)cc1-2 [Compound 238]
activation at 0.1 µM: 20 to 50%

Cc1ccccc1C#Cc1ncn2c1Cn1c(COC(C)C)nnc1-c1cc(Cl)ccc1-2 [Compound 310]
activation at 0.1 µM: 5 to 20%

COc1ccc2c(c1)-n1nnc(COc3ccccc3)c1Cc1c(-c3noc(C)n3)ncn1-2 [Compound 182]
activation at 0.1 µM: 20 to 50%

COc1ccc2c(c1)-n1nnc(COc3ccc(F)cc3)c1Cc1c(C#N)ncn1-2 [Compound 222]
activation at 0.1 µM: 20 to 50%

COc1ccc2c(c1)-c1nnc(COc3cccc(F)c3)n1Cc1c(-c3noc(C(C)C)n3)ncn1-2 [Compound 179]
activation at 0.1 µM: > 50%

COc1cccc(C#Cc2ncn3c2Cc2cnnn2-c2cc(OC)ccc2-3)c1 [Compound 409]
activation at 0.1 µM: 5 to 20%

Cc1nnn2c1Cc1c(-c3noc(C(C)C)n3)ncn1-c1ccc(F)cc1-2 [Compound 149]
activation at 0.1 µM: > 50%

COCc1nnc2n1Cc1c(-c3noc(C(C)C)n3)ncn1-c1ccc(F)cc1-2 [Compound 186]
activation at 0.1 µM: > 50%

COCc1nnc2n1Cc1c(C3=NC(c4ccccc4)CO3)ncn1-c1ccc(Cl)cc1-2 (centres unmarked) [Compound 242]
activation at 0.1 µM: 5 to 20%

COc1ccc2c(c1)-c1nnc(COC3CCCC3)n1Cc1c(-c3noc(C(C)C)n3)ncn1-2 [Compound 178]
activation at 0.1 µM: > 50%

N#Cc1ncn2c1Cc1c(COc3cccc(F)c3)nnn1-c1cc(Cl)ccc1-2 [Compound 227]
activation at 0.1 µM: 5 to 20%

C#Cc1ncn2c1Cn1c(COC)nnc1-c1cc(OC)ccc1-2 [Compound 328, 5-ethynyl-15-methoxy-9-(methoxymethyl)-2,4,8,10,11-pentaazatetracyclo[11.4.0.0^2,^60.0^8,^12]heptadeca-1(17),3,5,9,11,13,15-heptaene]
activation at 0.1 µM: 5 to 20%

CCOCc1nnc2n1Cc1c(-c3noc(C(C)C)n3)ncn1-c1ccc(F)cc1-2 [Compound 187]
activation at 0.1 µM: 20 to 50%

FC(F)(F)c1ccc([C@H]2COC(c3ncn4c3Cc3cnnn3-c3cc(Cl)ccc3-4)=N2)cc1 [Compound 362]
activation at 0.1 µM: 20 to 50%

Cc1noc(-c2ncn3c2Cc2c(Cc4ccccc4)nnn2-c2cc(F)ccc2-3)n1 [Compound 109]
activation at 0.1 µM: 20 to 50%

COc1ccc(C#Cc2ncn3c2Cc2cnnn2-c2cc(OC)ccc2-3)cc1 [Compound 414]
activation at 0.1 µM: 20 to 50%

Cc1nnn2c1Cc1c(C(=O)OC(C)C)ncn1-c1ccccc1-2 [Compound 153]
activation at 0.1 µM: 20 to 50%

CCOC(=O)c1ncn2c1Cc1c(Cc3cccnc3)nnn1-c1cc(C)ccc1-2 [Compound 111]
activation at 0.1 µM: 20 to 50%

COCc1nnc2n1Cc1c(C3=N[C@@H](c4ccccc4C)CO3)ncn1-c1ccc(Cl)cc1-2 [Compound 330]
activation at 0.1 µM: 20 to 50%

COc1ccc2c(c1)-n1nnc(Cc3ccc(F)cc3)c1Cc1c(Br)ncn1-2 [Compound 213]
activation at 0.1 µM: 20 to 50%

CCOC(=O)c1ncn2c1Cc1c(Cc3ccc(Cl)cc3)nnn1-c1cc(F)ccc1-2 [Compound 45]
activation at 0.1 µM: 20 to 50%

COCc1nnc2n1Cc1c(C3=N[C@@H](c4ccccc4F)CO3)ncn1-c1ccc(Cl)cc1-2 [Compound 319]
activation at 0.1 µM: 20 to 50%

Cc1nc(-c2ncn3c2Cc2c(C)nnn2-c2cc(F)ccc2-3)no1 [Compound 145]
activation at 0.1 µM: > 50%

Clc1ccc2c(c1)-n1nncc1Cc1c(C#Cc3ccccn3)ncn1-2 [Compound 401]
activation at 0.1 µM: 5 to 20%

COCc1nnc2n1Cc1c(C#CCc3cccc(F)c3)ncn1-c1ccc(Cl)cc1-2 [Compound 421]
activation at 0.1 µM: 20 to 50%

COc1ccc2c(c1)-n1nnc(COc3ccc(F)cc3)c1Cc1c(-c3noc(C)n3)ncn1-2 [Compound 180]
activation at 0.1 µM: 20 to 50%

COc1ccc2c(c1)-n1nncc1Cc1c(C#Cc3ccccc3)ncn1-2 [Compound 404]
activation at 0.1 µM: 5 to 20%

COc1ccc2c(c1)-c1nnc(COc3cccnc3)n1Cc1c(-c3noc(C(C)C)n3)ncn1-2 [Compound 176]
activation at 0.1 µM: > 50%

CC#Cc1ncn2c1Cn1c(COC)nnc1-c1cc(Cl)ccc1-2 [Compound 339]
activation at 0.1 µM: 20 to 50%

COCc1nnc2n1Cc1c(C#Cc3ccccc3C)ncn1-c1ccc(Cl)cc1-2 [Compound 293]
activation at 0.1 µM: 20 to 50%

COc1ccc2c(c1)-c1nnc(COCc3ccccc3F)n1Cc1c(-c3noc(C(C)C)n3)ncn1-2 [Compound 184]
activation at 0.1 µM: 20 to 50%

Clc1ccc2c(c1)-n1nncc1Cc1c(C#Cc3ccccc3)ncn1-2 [Compound 395]
activation at 0.1 µM: 5 to 20%

Clc1ccc2c(c1)-n1nncc1Cc1c(C#Cc3cccnc3)ncn1-2 [Compound 402]
activation at 0.1 µM: 20 to 50%

CCOC(=O)c1ncn2c1Cn1c(COCC(F)(F)F)nnc1-c1cc(Cl)ccc1-2 [Compound 308]
activation at 0.1 µM: 5 to 20%

COCc1nnc2n1Cc1c(-c3nc(C(C)C)no3)ncn1-c1ccc(OC)cc1-2 [Compound 130]
activation at 0.1 µM: 20 to 50%

COc1ccc2c(c1)-n1nncc1Cc1c(C#Cc3ccccc3C)ncn1-2 [Compound 405]
activation at 0.1 µM: 5 to 20%

Cc1nc(-c2ncn3c2Cc2c(C)nnn2-c2ccccc2-3)no1 [Compound 127]
activation at 0.1 µM: 20 to 50%

Cc1ccccc1C#Cc1ncn2c1Cc1cnnn1-c1cc(Cl)ccc1-2 [Compound 396]
activation at 0.1 µM: 5 to 20%

Cc1nnn2c1Cc1c(-c3nc(C(C)C)no3)ncn1-c1ccccc1-2 [Compound 132]
activation at 0.1 µM: 20 to 50%

CCOCc1nnc2n1Cc1c(C3=N[C@@H](c4ccc(F)cc4)CO3)ncn1-c1ccc(Cl)cc1-2 [Compound 325]
activation at 0.1 µM: 20 to 50%

COc1ccc2c(c1)-n1nnc(Cc3ccccc3)c1Cc1c(C#N)ncn1-2 [Compound 207]
activation at 0.1 µM: 20 to 50%

CC(C)OCc1nnc2n1Cc1c(C3=N[C@@H](c4ccc(F)cc4)CO3)ncn1-c1ccc(Cl)cc1-2 [Compound 326]
activation at 0.1 µM: 20 to 50%
